In US7812143B2, “Biomarkers for cancer treatment” (Memorial Sloan-Kettering Cancer Center, priority 2006, dated 2010):

Key:
[1] = test system: HER2/EGFR (WT BRAF) tumors; assay: Response of HER2/EGFR (WT BRAF) tumors to MEK inhibition, in vitro assays and xenograft models; type: cell-based; details: for effectiveness at expected target, phosphorylated MAPK: WT BRAF group compared with V600E BRAF tumors; for sensitivity of tumors with high MAPK activity under the control of activated receptors: in vitro assays and xenograft models
Source text: Eleven cells lines, including five BRAF mutants, are characterized by their tissue of lineage and mechanism of MAPK activation, were used for the experiments described herein, and are listed in Table 2. All the cell lines have high levels of MAPK activity.

[2] = test system: V600E B-RAF xenograft models of melanoma and colon carcinoma; assay: Tumor growth in V600E B-RAF xenograft models; details: for tumor growth: compared to vehicle-treated mice, several V600E B-RAF xenograft models of melanoma and colon carcinoma; for cyclin D and Ki-67 in tumor samples: western blot and immunohistochemistry of xenograft tumor samples
[3] = test system: V600E BRAF tumor cell lines; assay: Treatment of B-RAF mutant tumor cell lines and xenograft models with MEK inhibitors (cyclin D, RB, cell cycle, proliferation); type: cell-based; details: tumor cell lines and xenograft models with activating B-RAF mutation (V600E BRAF)
Source text: Eleven cells lines, including five BRAF mutants, are characterized by their tissue of lineage and mechanism of MAPK activation, were used for the experiments described herein, and are listed in Table 2.

SkMel 28 cells = assay: Affymetrix U133A 2.0 gene expression time course after MEK inhibitor; type: cell-based; details: 50 nM
Description: SkMel 28 cells (a melanoma cell line with the V600E BRAF mutation) were treated with the MEK inhibitor, PD0325901 (50 nM), for 2, 8, or 24 hours, or no treatment at all (=time 0 hours). Total cellular RNA was analyzed using an Affymetrix U133A 2.0 platform. Pairwise comparisons of gene expression at each individual time point to reference sample (time 0 hours) were performed, and genes were selected using a threshold of two-fold or greater change in either direction. […] Thus, genes which changed greater than or equal to two-fold in either direction in response to PD0325901 compared to control were identified at three time points following MEK inhibition. All genes were assigned to a functional class based on biological process, according to Gene Ontology (GO) classification (FIG. 2). The number of genes changing in each functional classification was assigned a p-value based on the significance of the number of genes changing given the total number of genes changed at that time point, compared to the total number of genes in the GO functional class, and the total number of genes on the chip. An enrichment score was assigned to each functional class, and was defined as the −log 10(p-value).

[4] = test system: panel of V600E BRAF cell lines; assay: Microarray (SAM) of gene expression, MEK-inhibited versus DMSO control; type: cell-based; details: 50 nM, 8 hours, false discovery rate 9%
Description: Mean expression of genes was determined for a panel of V600E BRAF cell lines in each of two conditions, MEK-inhibited (PD0325901 50 nM) or DMSO control, both at 8 hours. The panel of V600E BRAF cell lines included 5 melanoma cell lines (SkMel 1, SkMel 5, SkMel 19, SkMel 28, and MALME 3M) and two colorectal carcinoma cell lines (Colo205 and HT29).
Significance analysis of microarray (SAM) methods were used to determine the significance of difference between the two groups of genes (using a false discovery rate of 9%). […] Expression of the genes was also presented as a heatmap representation (FIG. 3B).

[5] = test system: SkMel 5, SkMel 19, and Colo205; assay: Western blot of relative protein expression after MEK inhibitor; type: cell-based; details: 50 nM, as a function of time; three V600E BRAF cell lines
Description: Following protein isolation using NP40 1% lysis buffer, Western blot analysis was used to determine relative protein expression in cells as a function of time following exposure to MEK inhibitor (PD0325901 50 nM). […] For the Western Blot analysis, DUSP6 antibody (SantaCruz (#8598)), and SPRY2 antibody (Upstate Cell Signaling Solutions).

SkMel 5 cells = assay: Quantitative RT-PCR of relative mRNA levels after MEK inhibitor; type: cell-based; details: 50 nM; 2, 4, 8 and 24 hrs versus time 0; SkMel 5 (V600E BRAF)
Description: Quantitative RT-PCR was used to determine relative levels of mRNA in cells as a function of time following exposure to the MEK inhibitor (PD0325901 50 nM). SkMel 5 cells were treated with MEK inhibitor (PD0325901 50 nM) for the times indicated (2 hrs, 4 hrs, 8 hrs, and 24 hrs). Following total RNA extraction and an in vitro reverse transcription step, synthesized cDNA was used in a PCR reaction containing pre-designed probe-primer sets purchased from Applied Biosystems and run on an ABI 7500 RT-PCR machine, using software supplied by Applied Biosystems. Relative levels of mRNA compared to the reference sample (time 0) were determined using the ΔΔCT calculation, using HPRT as a housekeeping gene for normalization. In brief, each gene for each sample is assigned a value based on the number of PCR amplification cycles required for the amplified gene product to cross a detection threshold (i.e., a gene detectable at 25 amplification cycles is present in greater starting quantity than a gene product detectable at 30 cycles). The cycle value for each sample for the gene of interest is subtracted from the cycle value for a reference sample (untreated, or time 0), and this value is the delta CT for the gene of interest. […] This is the delta CT for the housekeeping gene. The delta CT (housekeeping gene) is subtracted from the delta CT (gene of interest), and this is the delta delta CT. […]

Which results are given for `O=C(NOCC1CC1)c1ccc(F)c(F)c1Nc1ccc(I)cc1Cl` [CI-1040]?
effectiveness at expected target, phosphorylated MAPK [1]: not measurably different; sensitivity of tumors with high MAPK activity under the control of activated receptors [1]: resistant; tumor growth [2]: Tumor growth delay was achieved; cyclin D and Ki-67 in tumor samples [2]: decline in both cyclin D and Ki-67; cell cycle [3]: G1 arrest; cyclin D levels [3]: decline in cyclin D levels; phosphorylation of RB [3]: hypophosphorylation of RB; proliferation [3]: inhibition of proliferation

How did the “effectiveness at expected target, phosphorylated MAPK” value [1] turn out when `O=C(NOC[C@H](O)CO)c1ccc(F)c(F)c1Nc1ccc(I)cc1F` [PD0325901] was run?
Its value is “not measurably different”.

And the “sensitivity of tumors with high MAPK activity under the control of activated receptors” value [1]?
Its value is “resistant”.

And the “number of genes changing two-fold or greater in either direction” value (SkMel 28 cells; 2 hours versus time 0)?
The value was 91 genes.

What about the “number of genes changing two-fold or greater in either direction” value (SkMel 28 cells; 8 hours versus time 0) of the same molecule?
The value was 327 genes.

And the “number of genes changing two-fold or greater in either direction” value (SkMel 28 cells; 24 hours versus time 0)?
Its value is 1191 genes.

And the tumor growth [2]?
The tumor growth was “Tumor growth delay was achieved”.

What about the “cyclin D and Ki-67 in tumor samples” value [2] of the same molecule?
Its value is “decline in both cyclin D and Ki-67”.

And the genes downregulated [4]?
The genes downregulated was 31 genes.

And the genes upregulated [4]?
The genes upregulated was 4 genes.

What about the “genes which change significantly in either direction” value ([4]; 45 probe sets) of the same molecule?
Its value is 35 genes.

What about the “relative protein expression of DUSP6 and SPRY2” value [5] of the same molecule?
The value was “decrease in protein expression”.

And the cell cycle [3]?
Its cell cycle is “G1 arrest”.

What about the “cyclin D levels” value [3] of the same molecule?
The value was “decline in cyclin D levels”.

And the “phosphorylation of RB” value [3]?
The value was “hypophosphorylation of RB”.

What about the proliferation [3] of the same molecule?
Its proliferation is “inhibition of proliferation”.

And the “relative mRNA levels of DUSP6, SPRY2, ETV1, ETV5, and CCND1” value (SkMel 5 cells)?
The value was “Decrease in mRNA levels”.
